Experimental data published in patent publication US8618085B2, “Therapeutic formulations of desoxyepothilones” (Koasn Biosciences Incorporated, priority 2000, dated 2013).

Test: Dilution stability of epothilone D formulations, visual appearance
Format: physicochemical
Design: key: remained clear; ppt: precipitation; xtal: crystallization
Settings: for Visual Appearance Initial: undiluted; for Visual Appearance Saline Dilution 0 h / Visual Appearance Saline Dilution 12 h: 1:10 into 0.45% saline; for Visual Appearance RODI Dilution 0 h / Visual Appearance RODI Dilution 12 h / Visual Appearance RODI Dilution 24 h / Visual Appearance RODI Dilution 36 h / Visual Appearance RODI Dilution 48 h: 1:10 into RODI water; for Visual Appearance Saline Dilution 1:08 1 h / Visual Appearance Saline Dilution 1:10 1 h / Visual Appearance Saline Dilution 1:12 1 h: 0.9% saline
Description: The dilution stability of epothilone D formulations at 8-20 mg/mL in various formulations was examined. A stock solution of epothilone D (100 mg/mL) was prepared in ethanol. Epothilone D formulations were prepared as listed in the following tables by addition of the requisite amount of ethanol, PEG400, 10% Tween® 80, and either propylene glycol or glycerol to the appropriate volume of the epothilone D stock solution. The solubility of epothilone D in each vial was observed visually following gentle swirling. Each formulation was syringe filtered through a 0.2 micron PVDF filter. Each formulation was subsequently diluted 1:8, 1:10, or 1:12 in reverse osmosis deionized water (RODI) or 0.9% saline. Visual observations were taken upon preparation, upon dilution, and both 1 and 24 hours after incubation at ambient temperature.
The dilution stability up to 48 hours post-dilution was examined for the above formulations containg 8-11 mg/mL of epothilone D after 1:10 dilution into either RODI water or 0.45% saline, as summarized in Tables 12 and 13 below.

[1] = 11 mg/mL epo D in 10% Tween 80, 50% ethanol, 30% PEG400, 10% propylene glycol
[2] = 11 mg/mL epo D in 10% Tween 80, 60% ethanol, 20% PEG400, 10% glycerol
[3] = 12 mg/mL epo D in 10% Tween 80, 50% ethanol, 30% PEG400, 10% propylene glycol
[4] = 12 mg/mL epo D in 10% Tween 80, 60% ethanol, 20% PEG400, 10% glycerol
[5] = 16 mg/mL epo D in 10% Tween 80, 50% ethanol, 30% PEG400, 10% propylene glycol
[6] = 16 mg/mL epo D in 10% Tween 80, 60% ethanol, 20% PEG400, 10% glycerol
[7] = 20 mg/mL epo D in 10% Tween 80, 50% ethanol, 30% PEG400, 10% propylene glycol
[8] = 20 mg/mL epo D in 10% Tween 80, 60% ethanol, 20% PEG400, 10% glycerol
[9] = Table 12: 10 mg/mL epo D in 10% Tween 80, 60% ethanol, 20% PEG400, 10% glycerol
[10] = Table 13: 10 mg/mL epo D in 10% Tween 80, 50% ethanol, 30% PEG400, 10% propylene glycol

With `C/C1=C/CC(/C(C)=C/c2csc(C)n2)OC(=O)C[C@H](O)C(C)(C)C(=O)[C@H](C)[C@@H](O)[C@@H](C)CCC1` (stereo partly drawn) [Epothilone D, Desoxyepothilone B] the “Visual Appearance Initial” value (10 mg/mL epo D in 10% Tween 80, 60% ethanol, 20% PEG400, 10% glycerol) was “clear”, the “Visual Appearance Saline Dilution 0 h” value [1] was “clear” and the “Visual Appearance Saline Dilution 12 h” value [1] was “xtal”. The “Visual Appearance RODI Dilution 0 h” value [1] was “clear”, the “Visual Appearance RODI Dilution 12 h” value [1] was “xtal” and the “Visual Appearance Initial” value [1] was “clear”. The “Visual Appearance Saline Dilution 0 h” value [2] was “clear”, the “Visual Appearance Saline Dilution 12 h” value [2] was “xtal” and the “Visual Appearance RODI Dilution 0 h” value [2] was “clear”. The “Visual Appearance RODI Dilution 12 h” value [2] was “xtal”, the “Visual Appearance Initial” value [2] was “clear” and the “Visual Appearance RODI Dilution 1:08 0 h” value [3] was “clear”. The “Visual Appearance RODI Dilution 1:08 24 h” value [3] was “clear”, the “Visual Appearance RODI Dilution 1:10 0 h” value [3] was “clear” and the “Visual Appearance RODI Dilution 1:10 24 h” value [3] was “clear”. The “Visual Appearance RODI Dilution 1:12 0 h” value [3] was “clear”, the “Visual Appearance RODI Dilution 1:12 24 h” value [3] was “xtal” and the “Visual Appearance Saline Dilution 1:08 1 h” value [3] was “xtal”. The “Visual Appearance Saline Dilution 1:10 1 h” value [3] was “xtal”, the “Visual Appearance Saline Dilution 1:12 1 h” value [3] was “xtal” and the “Visual Appearance Initial” value [3] was “clear”. For the same compound, the “Visual Appearance RODI Dilution 1:08 0 h” value [4] was “clear”, the “Visual Appearance RODI Dilution 1:08 24 h” value [4] was “clear” and the “Visual Appearance RODI Dilution 1:10 0 h” value [4] was “clear”. For the same compound, the “Visual Appearance RODI Dilution 1:10 24 h” value [4] was “clear”, the “Visual Appearance RODI Dilution 1:12 0 h” value [4] was “clear” and the “Visual Appearance RODI Dilution 1:12 24 h” value [4] was “xtal”. The “Visual Appearance Saline Dilution 1:08 1 h” value [4] was “xtal”, the “Visual Appearance Saline Dilution 1:10 1 h” value [4] was “xtal” and the “Visual Appearance Saline Dilution 1:12 1 h” value [4] was “xtal”. For the same compound, the “Visual Appearance Initial” value [4] was “clear”, the “Visual Appearance RODI Dilution 1:08 0 h” value [5] was “ppt” and the “Visual Appearance RODI Dilution 1:10 0 h” value [5] was “ppt”. For the same compound, the “Visual Appearance RODI Dilution 1:12 0 h” value [5] was “ppt”, the “Visual Appearance Saline Dilution 1:08 1 h” value [5] was “ppt” and the “Visual Appearance Saline Dilution 1:10 1 h” value [5] was “ppt”. The “Visual Appearance Saline Dilution 1:12 1 h” value [5] was “ppt”, the “Visual Appearance Initial” value [5] was “clear” and the “Visual Appearance RODI Dilution 1:08 0 h” value [6] was “ppt”. The “Visual Appearance RODI Dilution 1:10 0 h” value [6] was “ppt”, the “Visual Appearance RODI Dilution 1:12 0 h” value [6] was “ppt” and the “Visual Appearance Saline Dilution 1:08 1 h” value [6] was “ppt”. The “Visual Appearance Saline Dilution 1:10 1 h” value [6] was “ppt”, the “Visual Appearance Saline Dilution 1:12 1 h” value [6] was “ppt” and the “Visual Appearance Initial” value [6] was “clear”. For the same compound, the “Visual Appearance RODI Dilution 1:08 0 h” value [7] was “ppt”, the “Visual Appearance RODI Dilution 1:10 0 h” value [7] was “ppt” and the “Visual Appearance RODI Dilution 1:12 0 h” value [7] was “ppt”. The “Visual Appearance Saline Dilution 1:08 1 h” value [7] was “ppt”, the “Visual Appearance Saline Dilution 1:10 1 h” value [7] was “ppt” and the “Visual Appearance Saline Dilution 1:12 1 h” value [7] was “ppt”. The “Visual Appearance Initial” value [7] was “clear”, the “Visual Appearance RODI Dilution 1:08 0 h” value [8] was “ppt” and the “Visual Appearance RODI Dilution 1:10 0 h” value [8] was “ppt”. For the same compound, the “Visual Appearance RODI Dilution 1:12 0 h” value [8] was “ppt”, the “Visual Appearance Saline Dilution 1:08 1 h” value [8] was “ppt” and the “Visual Appearance Saline Dilution 1:10 1 h” value [8] was “ppt”. The “Visual Appearance Saline Dilution 1:12 1 h” value [8] was “ppt”, the “Visual Appearance Initial” value [8] was “clear” and the “Visual Appearance Initial” value (Table 12: 8 mg/mL epo D in 10% Tween 80, 60% ethanol, 20% PEG400, 10% glycerol) was “clear”. The “Visual Appearance Initial” value (Table 12: 9 mg/mL epo D in 10% Tween 80, 60% ethanol, 20% PEG400, 10% glycerol) was “clear”, the “Visual Appearance RODI Dilution 0 h” value [9] was “clear” and the “Visual Appearance RODI Dilution 12 h” value [9] was “clear”. The “Visual Appearance RODI Dilution 24 h” value [9] was “clear”, the “Visual Appearance RODI Dilution 36 h” value [9] was “clear” and the “Visual Appearance RODI Dilution 48 h” value [9] was “xtal”. The “Visual Appearance Initial” value [9] was “clear”, the “Visual Appearance Initial” value (Table 13: 8 mg/mL epo D in 10% Tween 80, 50% ethanol, 30% PEG400, 10% propylene glycol) was “clear” and the “Visual Appearance Initial” value (Table 13: 9 mg/mL epo D in 10% Tween 80, 50% ethanol, 30% PEG400, 10% propylene glycol) was “clear”. The “Visual Appearance RODI Dilution 0 h” value [10] was “clear”, the “Visual Appearance RODI Dilution 12 h” value [10] was “clear” and the “Visual Appearance RODI Dilution 24 h” value [10] was “clear”. For the same compound, the “Visual Appearance RODI Dilution 36 h” value [10] was “clear”, the “Visual Appearance RODI Dilution 48 h” value [10] was “clear” and the “Visual Appearance Initial” value [10] was “clear”.
